These results are taken from PubChem BioAssay AID2202554 (NIEHS Division of Translational Toxicology (DTT)).

Inconclusive results are not listed. The source made the active and inactive calls. The rule behind the calls is not given here.

The test system of the data set is S. typhimurium/E. coli reverse mutation, colony counts. In words: Bacterial reverse mutation test (aka Ames test) summary data.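 Note: His-minus Salmonella and trp-minus E. coli WP2 uvrA pKM101 with or without liver S9.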 From the text: The Ames test uses bacteria cultures to determine whether a substance causes mutations. Because there is a significant overlap between substances that are mutagens and those that are carcinogens, a quick and inexpensive mutagenicity test is useful as an initial screening for possible carcinogens.
The Ames test relies on specific strains of S. typhimurium, namely: TA97, TA98, TA100, TA102, TA104, TA1535, TA1537, and TA1538. In addition to the S. typhimurium strains, the test may also use the E. coli strain WP2 uvrA pKM101.
Each of the bacterial strains has a mutation that prevents it from making an amino acid (a protein building block) required for normal cell growth. The S. typhimurium strains are unable to manufacture histidine; the E. coli strain cannot manufacture tryptophan. The tester strains will not be able to grow without amino acid supplementation, unless the mutated gene is changed back to the correct DNA sequence (reversion mutation). Being exposed to a mutagenic chemical increases the chance that the mutant gene will be restored to the correct sequence, which allows the bacteria to grow and form colonies. Each substance under study is tested in a variety of bacterial strains with different types of altered DNA sequences in order to provide a comprehensive assessment of the mutagenic potential of the substance.
Some non-mutagenic substances are converted to mutagenic substances when metabolized by the liver; in contrast, some substances that are mutagenic in their natural state are converted to non-mutagens by the liver. All substances are tested in their natural state, as well as in the presence of liver enzymes that can produce this metabolic conversion of the test substance. Extracts of rat, hamster, or mouse liver enzymes (S9 mix) are used for this purpose.
D. Preparing the Cultures
Multiple sets of cultures are prepared using a range of doses and different amounts of liver enzymes for each bacterial strain. Each culture is prepared in a test tube containing a suspension of one bacterial strain and either an S9 mix or plain buffer solution. Then the test substance is added. Negative control cultures are established using the same ingredients, but without the test substance. Positive control cultures are established using known mutagens active in particular bacterial strains and metabolic conditions (for example, with or without S9). Once prepared, each culture is incubated for 20 minutes at 37° C. Agar is then added to the cultures, and the contents of each tube are poured onto the surface of a Petri dish that was prepared with standard bacterial culture medium. The plates are then incubated, usually for two days.
Depending on the substance to be tested, the exposure and incubation processes may be modified. These variations include:
- Elimination of the 20-minute incubation period in a test tube prior to plating (this method is referred to as the standard plate incorporation method)
- Enzymatic reduction of azo and diazo substances (this process occurs in the intestine or liver of animals) using a chemical called flavin mononucleotide (FMN) or intestinal bacterial preparations from rats
- Testing in sealed chambers such as desiccators for volatile and gaseous chemicals.
To validate the test, a trained investigator compares the number of colonies on the chemical-treated plates to the number of colonies on the negative control plates. If the substance under test is mutagenic, the chemical-treated plates will have a much greater number of colonies than the negative control plates.
- A positive response is a reproducible, dose-related increase in mutant colonies in any single strain, with or without the addition of S9 metabolic enzymes. While there is no minimum percentage of increase required for a result to be considered positive, a twofold increase in mutant colonies in a treated plate is usually considered to be a positive (mutagenic) response.
[…]
On the technique in general: In the Ames test, an excess of revertant colonies over the control signals mutagenicity.
Take `C=CCC1(C(C)C#CCC)C(=O)N=C(O)N(C)C1=O` (stereo not drawn): the outcome is “inactive; negative”. As for `O=C1OC2(c3ccc(O)cc3Oc3cc(O)ccc32)c2ccccc21`, the outcome was “inactive; negative”. `CC(=O)NBr`: the outcome is “inactive; negative”. With `COc1c(C(C)(C)C)cc([N+](=O)[O-])c(C)c1[N+](=O)[O-]` the entry was “inactive; negative”. The value for `Nc1nccs1` was “active; positive”.

As for `COP(=O)(O)O`, the outcome is “inactive; negative”.

With `c1ccc2c(c1)oc1ccccc12`, the outcome was “inactive; negative”. The value for `CCCNC(=O)NS(=O)(=O)c1ccc(Cl)cc1` was “inactive; negative”; that for `Nc1c(Oc2ccccc2)cc(O)c2c1C(=O)c1ccccc1C2=O` was “active; positive”. The value for `Nc1ccc(N=Nc2ccccc2)c(N)n1` was “active; positive”; that for `O=C(Cl)c1ccc([N+](=O)[O-])cc1` was “active; positive”. With `Cc1ccc(CO)cc1` the entry was “inactive; negative”.

With `CC(=O)Nc1cccc(N)c1`, the outcome is “active; positive”.

As for `CN(C)CCCCl`, the outcome is “active; positive”. Take `CC(=O)OCc1ccco1`: the outcome was “active; positive”. With `Cc1nnc(NS(=O)(=O)c2ccc(N)cc2)s1` the entry was “inactive; negative”; with `CN(C)c1ccc(C(=N)c2ccc(N(C)C)cc2)cc1`, “active; positive”. Regarding `COc1cc2c(c(OC)c1OC)-c1ccc(OC)c(=O)cc1[C@@H](NC(C)=O)CC2`, the outcome was “inactive; negative”. Take `O=C(O)c1cc(Cl)cc(Cl)c1`: the outcome is “inactive; negative”.

`ClC=CCCl`: the outcome was “active; positive”. The value for `C=C(C)C(=O)OCC` was “inactive; negative”; that for `CN1CCC[C@H]1c1cccnc1` was “inactive; negative”; that for `O=P(Oc1ccccc1)(Oc1ccccc1)Oc1ccccc1` was “inactive; negative”. With `CCC(=O)C=CC1C(C)=CCCC1(C)C` (stereo not drawn) the entry was “inactive; negative”; with `ClC(Cl)(Cl)C1CO1` (stereo not drawn), “active; positive”; with `CN(C)CCCN1c2ccccc2Sc2ccc(Cl)cc21`, “inactive; negative”. With `NC1CCC(CC2CCC(N)CC2)CC1` (stereo not drawn) the entry was “inactive; negative”; with `Cc1ccccc1C(=O)O`, “inactive; negative”; with `C=CC(C)C#N` (stereo not drawn), “active; weakly positive”. On to `C1CCCNCC1`, for which the outcome is “inactive; negative”.

In the case of `O=C(O)c1cccc(Cl)c1`, the outcome was “inactive; negative”. As for `c1ccc(N(c2ccccc2)c2ccccc2)cc1`, the outcome was “inactive; negative”. With `CC(C)[C@@H]1CC[C@@H](C)C[C@H]1O` the entry was “inactive; negative”; with `OCC(O)CI` (stereo not drawn), “active; positive”.

For `OCCOCCO`, the outcome was “inactive; negative”. Regarding `COC(=O)c1ccc(C)cc1`, the outcome was “inactive; negative”. With `Nc1cc(S(=O)(=O)O)ccc1O` the entry was “inactive; negative”; with `N=C1N=C(N)c2ccccc21`, “active; positive”; with `CC[N+](=O)[O-]`, “inactive; negative”.

With `Cc1cc2nc(N)sc2cc1C`, the outcome is “active; positive”. In the case of `CC(=O)O`, the outcome was “inactive; negative”. Consider `CC(=O)C(N=Nc1ccc(-c2ccc(N=NC(C(C)=O)C(=O)Nc3ccccc3)c(Cl)c2)cc1Cl)C(=O)Nc1ccccc1` (stereo not drawn), for which the outcome was “inactive; negative”. With `O=C(CCl)c1ccc(Cl)cc1Cl` the entry was “active; positive”; with `CCCCCCOCC1CO1` (stereo not drawn), “active; positive”.

In the case of `C`, the outcome is “inactive; negative”. The value for `CC(C)NCC(O)c1ccc(O)c(O)c1` (stereo not drawn) was “active; weakly positive”. The value for `Cl` was “inactive; negative”; that for `CCn1cc(C(=O)O)c(=O)c2ccc(C)nc21` was “active; weakly positive”; that for `C[CH2][Pb]([CH2]C)([CH2]C)[CH2]C` was “inactive; negative”. The value for `CCC(C)(C)C` was “inactive; negative”; that for `CCCCC=O` was “inactive; negative”; that for `ClCC(Br)CBr` (stereo not drawn) was “active; positive”. As for `NCP(=O)(O)O`, the outcome is “inactive; negative”. With `CC(C)(C)OO` the entry was “active; positive”; with `CC(C)Nc1ccc(Nc2ccccc2)cc1`, “inactive; negative”.

On to `O=[N+]([O-])c1ccc(Cl)c(Cl)c1`, for which the outcome was “active; positive”.

Turning to `CC=O`, the outcome was “inactive; negative”. With `C(=NC1CCCCC1)=NC1CCCCC1` the entry was “inactive; negative”; with `C=CCNCC=C`, “inactive; negative”. The value for `CC(C)c1ccccc1` was “inactive; negative”; that for `N#CSCSC#N` was “inactive; negative”; that for `CC(=O)CC(=O)N(C)C` was “inactive; negative”.

`ICCc1ccccc1`: the outcome is “inactive; negative”.

Consider `Nc1ccc2cc(S(=O)(=O)O)c(N=Nc3ccc(-c4ccc(N=Nc5ccc(O)c(C(=O)O)c5)cc4)cc3)c(O)c2c1`, for which the outcome is “active; positive”.

As to `c1cc2c3c(cccc3c1)CC2`, the outcome was “inactive; negative”.

As for `ClC(Br)Br`, the outcome is “active; weakly positive”. As for `CS(=O)(=O)c1ccc(C(=O)C2C(=O)CCCC2=O)c([N+](=O)[O-])c1`, the outcome was “active; positive”. The value for `Oc1cc(Cl)c(Cl)c(Cl)c1Cl` was “inactive; negative”; that for `COc1cc(OC)c(OC)cc1C=O` was “inactive; negative”; that for `Nc1cc(Cl)cc(C(=O)O)c1Cl` was “active; positive”. The value for `CCCCCCCCCCCCCCCCCC[N+](C)(C)Cc1ccccc1` was “inactive; negative”; that for `CCCCNCCCC` was “inactive; negative”; that for `Cc1ccccc1O` was “inactive; negative”. The value for `Cc1occc(=O)c1O` was “active; weakly positive”; that for `CN(C)C(=O)Oc1ccc[n+](C)c1` was “inactive; negative”.

Regarding `CCNc1ccc([N+](=O)[O-])cc1C`, the outcome is “active; positive”. The value for `Oc1cccc(Cl)c1` was “inactive; negative”. With `Cc1cc(=O)[nH]c(=S)[nH]1` the entry was “inactive; negative”. With `Nc1c2ccccc2nc2ccccc12` the entry was “active; positive”; with `CC(=O)OO`, “inactive; negative”. In the case of `CN(C)CCN(Cc1ccccc1)c1ccccc1`, the outcome was “inactive; negative”. The value for `CCN(CC)c1ccccc1` was “inactive; negative”; that for `O=C(O)c1cc(O)c2c(c1)[C@H]([C@H]1c3cc(C(=O)O)cc(O)c3C(=O)c3c(O[C@@H]4O[C@H](CO)[C@@H](O)[C@H](O)[C@H]4O)cccc31)c1cccc(O[C@@H]3O[C@H](CO)[C@@H](O)[C@H](O)[C@H]3O)c1C2=O` was “inactive; negative”; that for `Cc1ccc(Br)cc1` was “inactive; negative”.

For `CCC(C)c1ccccc1O` (stereo not drawn), the outcome is “inactive; negative”. The value for `Cc1ccc(S(=O)(=O)NC2CCCCC2)cc1` was “inactive; negative”; that for `Cn1cnc([N+](=O)[O-])c1Sc1ncnc2nc[nH]c12` was “active; positive”. With `O=C=Nc1ccc(Cc2ccc(N=C=O)cc2)cc1` the entry was “inactive; negative”; with `CCCCCCC(=O)O`, “inactive; negative”; with `NCCCOCCOCCOCCCN`, “inactive; negative”. The value for `Cc1ccc(N)c(C)c1` was “active; positive”; that for `Nc1c2c(nc3ccccc13)CCCC2` was “active; positive”; that for `Cc1cccc(N)c1` was “inactive; negative”.
